Measured values: patent US20190145978A1, “APPLICATION OF PDE3A IN JUDGMENT OF TUMOR TREATMENT EFFECT OF ANAGRELID” (Shanghai Institute of Materia Medica, Chinese Academy of …, priority 2016, published 2019)
Read-outs that look alike come from different tables or passages of the source.

Columns and labels:
[1] = tested on: HeLa cells transfected with pde3a siRNA; test: PI detection of apoptotic cells in HeLa after PDE3A knockdown and anagrelide treatment; format: cell-based, human; settings: 48 hours after PDE3A knockout, anagrelide 36 hours, PI staining
Procedure: The HeLa cells in logarithmic growth phase were inoculated into 96-well plates or RTCA plates at about 6000/well and cultivated overnight until the cells were attached about 70-80%, and the cells were in good condition; a certain amount of serum-free and antibiotic-free medium was added into two EP tubes, respectively, and a suitable amount of siRNA was added into one tube and mixed, while a suitable amount of Lipofectamine™2000 was added into the other tube and mixed at room temperature for 5-10 min. The medium supplemented with Lipofectamine™ reagent was added into the siRNA-containing EP tube and mixed at room temperature for 15 min; during the placement, the cells were washed once with serum-free and non-double antibody medium, and 75 μL of the medium was added, ready for use. After 15 minutes, the mixed medium was added into the cell culture dish, 25 μL/well, and gently shaken and mixed; after cultured at 37° C., 5% CO2 for 6 hours, the medium was changed to fresh medium containing 10% FBS; after 24-72 h, the expression of RNAi interference protein was detected by western blot. In 96-well plates, cells were treated with different compounds for 24-36 hours, and 2 μL of PI dye liquor (25 ug/mL) was added into 96-well plates. Cells were incubated for 20 min, and photographed under a fluorescence microscope for observation of the number of red fluorescent cells. […]

[2] = tested on: HeLa cells transfected with pde3a siRNA; test: RTCA growth monitoring of HeLa cells after pde3a siRNA knockdown and anagrelide treatment; format: cell-based, human; settings: pde3a siRNA KD1/KD2 vs NC
Procedure: Wherein, NC: control group, KD: PDE3A knockdown group. The HeLa cells in logarithmic growth phase were inoculated into 96-well plates or RTCA plates at about 6000/well and cultivated overnight until the cells were attached about 70-80%, and the cells were in good condition; a certain amount of serum-free and antibiotic-free medium was added into two EP tubes, respectively, and a suitable amount of siRNA was added into one tube and mixed, while a suitable amount of Lipofectamine™2000 was added into the other tube and mixed at room temperature for 5-10 min. The medium supplemented with Lipofectamine™ reagent was added into the siRNA-containing EP tube and mixed at room temperature for 15 min; during the placement, the cells were washed once with serum-free and non-double antibody medium, and 75 μL of the medium was added, ready for use. After 15 minutes, the mixed medium was added into the cell culture dish, 25 μL/well, and gently shaken and mixed; after cultured at 37° C., 5% CO2 for 6 hours, the medium was changed to fresh medium containing 10% FBS; after 24-72 h, the expression of RNAi interference protein was detected by western blot. […] The real-time monitor automatically monitored cell growth for more than 4 days, and the amount of cells was reflected according to the size of the resistance formed by spreading the cells. […]

[3] = tested on: Twenty cell lines negatively expressing PDE3A; test: Antitumor activity assay (MTT), PDE3A-negative cell lines; format: cell-based, human
Procedure: (§1) Wherein anagrelide (1 μM) is used for treatment for 72 hours, and MTT assay is used to detect the cell survival rate. The cells are classified by the test results: sensitive (survival rate <40%), moderately sensitive (40-75% of survival rate), resistance (survival rate >75. The cell names in the figure are marked with a circle and a triangle respectively to identify the sensitive group and the moderately sensitive group. 3. Determination of Half Poisoning Dose of Drugs to Cells (MTT Method) The liquid containing drugs was continuously geometrically diluted to 1:10, 1:100, 1:1,000, 1:10,000 with a cell maintenance solution, and a normal cell control group was set up. Different concentrations of each drug were added into a 96-well plate that has been grown into a single layer, respectively, and inoculated per dilution in triplicate, and 100 μl was added per well, and the plate was incubated in a carbon dioxide incubator at 37° C. for 72 h, followed by 5 μg/ml 25 μL of MTT was added. The culture was continued for 3.5 h, and the supernatant was removed and discarded. […] Then the OD value at 570 nm was measured by a microplate reader. The cell viability of each drug dilution was calculated: cell viability %=(mean value of experimental well OD measured value/mean value of control well OD measured value)×100%. […]

[4] = tested on: Bel7404, A498 and SW1116; test: Antitumor activity assay (MTT), moderately sensitive PDE3A-positive cell lines; format: cell-based, human
Procedure: as §1

[5] = tested on: platelets; test: Inhibition of platelets in vitro; format: cell-based; settings: Platelet; read-out: IC50 of anagrelide inhibiting platelets in vitro
[6] = tested on: SMMC7721, FHCC98, H4, and HeLa; test: Antitumor activity assay (MTT), anagrelide-sensitive PDE3A-positive cell lines; format: cell-based, human; settings: for IC50: Homo sapiens
Procedure: Wherein anagrelide (1 μM) is used for treatment for 72 hours, and MTT assay is used to detect the cell survival rate. The cells are classified by the test results: sensitive (survival rate <40%), moderately sensitive (40-75% of survival rate), resistance (survival rate >75. The cell names in the figure are marked with a circle and a triangle respectively to identify the sensitive group and the moderately sensitive group. 3. Determination of Half Poisoning Dose of Drugs to Cells (MTT Method) The liquid containing drugs was continuously geometrically diluted to 1:10, 1:100, 1:1,000, 1:10,000 with a cell maintenance solution, and a normal cell control group was set up. Different concentrations of each drug were added into a 96-well plate that has been grown into a single layer, respectively, and inoculated per dilution in triplicate, and 100 μl was added per well, and the plate was incubated in a carbon dioxide incubator at 37° C. for 72 h, followed by 5 μg/ml 25 μL of MTT was added. The culture was continued for 3.5 h, and the supernatant was removed and discarded. 150 μl of the dissolving solution DMSO was added to each well, and the plate was shaked for 5 to 10 min, until the crystals were completely dissolved. Then the OD value at 570 nm was measured by a microplate reader. The cell viability of each drug dilution was calculated: cell viability %=(mean value of experimental well OD measured value/mean value of control well OD measured value)×100%. The drug concentration at 50% cell poisoning (IC50) was calculated using probability unit regression. The cell lines in Example 1 were subjected to an activity assay using Anagrelide at a concentration of 1 μM, and the cell lines were classified into three categories according to cell viability: sensitive (S), moderately sensitive (M), and insensitive (R), and the IC50 value of anagrelide in inhibiting each cell line was further determined.

[7] = tested on: Bel7404; test: MTT assay, IC50 of anagrelide on tumor cell line; format: cell-based; settings: Homo sapiens, BEL-7404, 72 h
Procedure: (§2) 3. Determination of Half Poisoning Dose of Drugs to Cells (MTT Method)
(§3) The liquid containing drugs was continuously geometrically diluted to 1:10, 1:100, 1:1,000, 1:10,000 with a cell maintenance solution, and a normal cell control group was set up. Different concentrations of each drug were added into a 96-well plate that has been grown into a single layer, respectively, and inoculated per dilution in triplicate, and 100 μl was added per well, and the plate was incubated in a carbon dioxide incubator at 37° C. for 72 h, followed by 5 μg/ml 25 μL of MTT was added.
(§4) The culture was continued for 3.5 h, and the supernatant was removed and discarded. 150 μl of the dissolving solution DMSO was added to each well, and the plate was shaked for 5 to 10 min, until the crystals were completely dissolved. Then the OD value at 570 nm was measured by a microplate reader. The cell viability of each drug dilution was calculated: cell viability %=(mean value of experimental well OD measured value/mean value of control well OD measured value)×100%. The drug concentration at 50% cell poisoning (IC50) was calculated using probability unit regression.
(§5) The cell lines in Example 1 were subjected to an activity assay using Anagrelide at a concentration of 1 μM, and the cell lines were classified into three categories according to cell viability: sensitive (S), moderately sensitive (M), and insensitive (R), and the IC50 value of anagrelide in inhibiting each cell line was further determined.

[8] = tested on: H4; test: MTT assay, IC50 of anagrelide on tumor cell line; format: cell-based; settings: Homo sapiens, 72 h
Procedure: as §2, §3, §4, §5

[9] = tested on: A498; test: MTT assay, IC50 of anagrelide on tumor cell line; format: cell-based; settings: Homo sapiens, 72 h
Procedure: as §2, §3, §4, §5

[10] = tested on: SW1116; test: MTT assay, IC50 of anagrelide on tumor cell line; format: cell-based; settings: Homo sapiens, SW 1116, 72 h
Procedure: as §2, §3, §4, §5

[11] = tested on: SMMC7721; test: MTT assay, IC50 of anagrelide on tumor cell line; format: cell-based; settings: Homo sapiens, SMMC-7721, 72 h
Procedure: as §2, §3, §4, §5

[12] = tested on: FHCC98; test: MTT assay, IC50 of anagrelide on tumor cell line; format: cell-based; settings: Homo sapiens, FHCC-98, 72 h
Procedure: as §2, §3, §4, §5

[13] = tested on: Hela; test: MTT assay, IC50 of anagrelide on tumor cell line; format: cell-based; settings: Homo sapiens, 72 h
Procedure: as §2, §3, §4, §5

[14] = Animal experiment, safety at tumor-inhibiting doses; format: in vivo; settings: 10 mg-200 mg/kg

IC50 ([3]; Homo sapiens, twenty cell lines negatively expressing PDE3A): > 50000 nM
IC50 ([4]; Homo sapiens, Bel7404, A498, SW1116 (PDE3A positive)): 400 to 16000 nM
IC50 [5]: 270 to 1000 nM
IC50 ([6]; SMMC7721, FHCC98, H4, HeLa (PDE3A positive), read-out: IC50 values, sensitive cell lines): < 30 nM
IC50 ([6]; sensitive tumor cells, in vitro, read-out: IC50 for sensitive tumor cells in vitro): < 30 nM
IC50 [7]: 428 nM
IC50 [8]: 23 nM
IC50 [9]: 15900 nM
IC50 [10]: 14500 nM
IC50 [11]: 15 nM
IC50 [12]: 8 nM
IC50 [13]: 22 nM
SMILES: O=C1CN2Cc3c(ccc(Cl)c3Cl)NC2=N1 [anagrelide, 6,7-dichloro-1,5-dihydroimidazo [2,1-b]quinazolin-2(3H) one]
PI positive cells, KD group vs control group [1]: fewer PI positive cells than that in the control group
survival rate after anagrelide was added, KD vs NC group [2]: the survival rate of KD2 with the lower level of PDE3A protein was the highest, while that in the NC group was the lowest
sensitivity class by cell survival rate ([3]; anagrelide 1 μM, 72 hours, MTT): not sensitive
sensitivity class by cell survival rate ([4]; anagrelide 1 μM, 72 hours, MTT): moderately sensitive (moderately sensitive (40-75% of survival rate))
sensitivity class by cell survival rate ([6]; anagrelide 1 μM, 72 hours, MTT): sensitive (sensitive (survival rate <40%))
safety at doses that inhibit tumor cell growth [14]: safe
